Measured values from patent US20110028686A1, “Protein binding miniature proteins” (Yale University, priority 2000, published 2011).
Where “and” joins values, the source holds several entries; their conditions need not be identical. Equal entries are not always repeated. Where two headings read alike, the source gives them in different places. One block for each compound: values may come before it. Square brackets hold non-standard residues; d marks the D form. Ends that are not written are not given here. Peptide text beside a SMILES is read from it. * marks the point of attachment. X1 = C[C@]12O[C@H](C[C@]1(O)C(=O)NCCCCCCCCNC(=O)C*)n1c3ccccc3c3c4c(c5c6ccccc6n2c5c31)CNC4=O; Fluorescein(5-NHCOCH2) = O=C(C*)Nc1ccc2c(c1)C(=O)OC21c2ccc(O)cc2Oc2cc(O)ccc21; pS = N[C@@H](COP(=O)(O)O)C(=O)O

What was measured:
CBP KIX Y658F = biological target: T1, CBP KIX Y658F (Mus musculus, UniProt P45481, Y658F); experiment: Equilibrium fluorescence polarization, CBP KIX variant Y658F; assay type: binding
T1 construct: made in house; host or cells: E. coli BL21(DE3) pArg

CBP KIX Y650A = biological target: T2, CBP KIX Y650A (Mus musculus, UniProt P45481, Y650A); experiment: Equilibrium fluorescence polarization, CBP KIX variant Y650A; assay type: binding
T2 construct: made in house; host or cells: E. coli BL21(DE3) pArg

CBP KIX L603A = biological target: T3, CBP KIX L603A (Mus musculus, UniProt P45481, L603A); experiment: Equilibrium fluorescence polarization, CBP KIX variant L603A; assay type: binding
T3 construct: made in house; host or cells: E. coli BL21(DE3) pArg

CBP KIX I657A = biological target: T4, CBP KIX I657A (Mus musculus, UniProt P45481, I657A); experiment: Equilibrium fluorescence polarization, CBP KIX variant I657A; assay type: binding
T4 construct: made in house; host or cells: E. coli BL21(DE3) pArg

CBP KIX LL652-3AA = biological target: T5, CBP KIX LL652-3AA (Mus musculus, UniProt P45481, L652A/L653A); experiment: Equilibrium fluorescence polarization, CBP KIX variant LL652-3AA; assay type: binding
T5 construct: made in house; host or cells: E. coli BL21(DE3) pArg

CBP KIX K662A = biological target: T6, CBP KIX K662A (Mus musculus, UniProt P45481, K662A); experiment: Equilibrium fluorescence polarization, CBP KIX variant K662A; assay type: binding
T6 construct: made in house; host or cells: E. coli BL21(DE3) pArg

CBP KIX L599A = biological target: T7, CBP KIX L599A (Mus musculus, UniProt P45481, L599A); experiment: Equilibrium fluorescence polarization, CBP KIX variant L599A; assay type: binding
T7 construct: made in house; host or cells: E. coli BL21(DE3) pArg

CBP KIX K606A = biological target: T8, CBP KIX K606A (Mus musculus, UniProt P45481, K606A); experiment: Equilibrium fluorescence polarization, CBP KIX variant K606A; assay type: binding
T8 construct: made in house; host or cells: E. coli BL21(DE3) pArg

[1] = biological target: T9, HisKIX (His-tagged CBP KIX domain) (Mus musculus, UniProt P45481); experiment: Equilibrium fluorescence polarization, HisKIX binding; conditions: for Kd: 25° C.
T9 construct: The CBP KIX-coding region (residues 586 to 672) of pGEX-KT KIX 10-672; made in house; host or cells: E. coli BL21(DE3) pArg

PKA = PKA (Homo sapiens, UniProt P17612); experiment: PKA phosphotransferase assay, streptavidin-matrix capture of [32P]-phosphorylated substrates; assay type: biochemical
[2] = biological target: cGMP-dependent protein kinase (PKG); experiment: Phosphotransferase assay, PKG; assay type: biochemical
Akt kinase (PKB) = Akt kinase (PKB) (Homo sapiens, UniProt P31749); experiment: Phosphotransferase assay, PKB; assay type: biochemical; conditions: 1-K252a up to 100 nM; 1 up to 5 μM
[3] = biological target: protein kinase Cα (PKC-α) (Homo sapiens, UniProt P17252); experiment: Phosphotransferase assay, PKC-α; assay type: biochemical; conditions: 1-K252a up to 100 nM; 1 up to 5 μM
[4] = system: Ca++/calmodulin kinase II (CamKII); experiment: Phosphotransferase assay, CamKII; assay type: biochemical; conditions: 1-K252a up to 100 nM; 1 up to 5 μM
CBP KIX I660A = biological target: T10, CBP KIX I660A (Mus musculus, UniProt P45481, I660A); experiment: Equilibrium fluorescence polarization, CBP KIX variant I660A; assay type: binding; conditions: 25° C.
T10 construct: made in house; host or cells: E. coli BL21(DE3) pArg

CBP KIX Y658A = biological target: T11, CBP KIX Y658A (Mus musculus, UniProt P45481, Y658A); experiment: Equilibrium fluorescence polarization, CBP KIX variant Y658A; assay type: binding; conditions: 25° C.
T11 construct: made in house; host or cells: E. coli BL21(DE3) pArg

CBP KIX E655A = biological target: T12, CBP KIX E655A (Mus musculus, UniProt P45481, E655A); experiment: Equilibrium fluorescence polarization, CBP KIX variant E655A; assay type: binding; conditions: 25° C.
T12 construct: made in house; host or cells: E. coli BL21(DE3) pArg

CBP KIX wild type = biological target: T13, CBP KIX wild type (Mus musculus, UniProt P45481); experiment: Equilibrium fluorescence polarization, wild type CBP KIX; assay type: binding; conditions: 25° C.
T13 construct: made in house; host or cells: E. coli BL21(DE3) pArg

CBP KIX Q661A = biological target: T14, CBP KIX Q661A (Mus musculus, UniProt P45481, Q661A); experiment: Equilibrium fluorescence polarization, CBP KIX variant Q661A; assay type: binding; conditions: 25° C.
T14 construct: made in house; host or cells: E. coli BL21(DE3) pArg

Calmodulin = biological target: T15, Calmodulin (Homo sapiens, UniProt P0DP23); experiment: Fluorescence polarization specificity, calmodulin; assay type: binding; conditions: calmodulin as target protein; read-out: Kd CalM
T15 construct: purchased Sigma
Excerpt: (§1) Given the myriad protein surfaces present in the cell, the utility of molecules that recognize protein surfaces will depend on their ability to interact selectively with the desired protein.

Carbonic anhydrase II = biological target: T16, Carbonic anhydrase II (Homo sapiens, UniProt P00918); experiment: Fluorescence polarization specificity, carbonic anhydrase II; assay type: binding; conditions: carbonic anhydrase II as target protein; read-out: Kd CA
T16 construct: purchased Sigma
Excerpt: as §1

T9 sequence (P45481 586-672): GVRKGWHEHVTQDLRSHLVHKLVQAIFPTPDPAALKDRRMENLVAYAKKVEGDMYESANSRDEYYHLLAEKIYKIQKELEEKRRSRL
T11 sequence (P45481 586-665 Y658A limits assumed): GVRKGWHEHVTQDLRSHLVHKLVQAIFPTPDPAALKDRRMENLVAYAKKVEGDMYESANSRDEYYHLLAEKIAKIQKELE
T8 sequence (P45481 586-665 K606A limits assumed): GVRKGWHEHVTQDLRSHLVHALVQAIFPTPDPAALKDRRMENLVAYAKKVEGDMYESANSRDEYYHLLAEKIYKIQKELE
T6 sequence (P45481 586-665 K662A limits assumed): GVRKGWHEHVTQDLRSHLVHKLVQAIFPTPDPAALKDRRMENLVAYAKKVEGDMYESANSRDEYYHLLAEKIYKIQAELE
T4 sequence (P45481 586-665 I657A limits assumed): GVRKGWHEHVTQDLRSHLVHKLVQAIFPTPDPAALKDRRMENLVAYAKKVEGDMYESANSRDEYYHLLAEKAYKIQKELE
T1 sequence (P45481 586-665 Y658F limits assumed): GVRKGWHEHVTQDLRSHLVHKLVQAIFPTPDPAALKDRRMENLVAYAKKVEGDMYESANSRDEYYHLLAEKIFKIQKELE
T3 sequence (P45481 586-665 L603A limits assumed): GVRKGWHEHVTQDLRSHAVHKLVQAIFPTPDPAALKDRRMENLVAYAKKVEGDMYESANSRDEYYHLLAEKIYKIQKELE
T2 sequence (P45481 586-665 Y650A limits assumed): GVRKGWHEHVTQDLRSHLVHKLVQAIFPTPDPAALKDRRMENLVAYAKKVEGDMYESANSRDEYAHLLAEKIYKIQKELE
T5 sequence (P45481 586-665 L652A/L653A): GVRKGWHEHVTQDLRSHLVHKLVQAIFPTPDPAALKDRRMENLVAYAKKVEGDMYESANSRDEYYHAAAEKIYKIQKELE
T10 sequence (P45481 586-665 I660A limits assumed): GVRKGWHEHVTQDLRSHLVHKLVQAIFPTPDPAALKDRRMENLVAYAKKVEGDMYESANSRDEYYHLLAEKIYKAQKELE
T14 sequence (P45481 586-665 Q661A limits assumed): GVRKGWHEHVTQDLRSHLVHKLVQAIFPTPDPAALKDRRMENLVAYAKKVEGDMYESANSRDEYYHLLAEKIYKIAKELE
T12 sequence (P45481 586-665 E655A limits assumed): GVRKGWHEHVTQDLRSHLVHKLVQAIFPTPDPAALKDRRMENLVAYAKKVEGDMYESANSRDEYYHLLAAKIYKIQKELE
Akt kinase (PKB), sequence (P31749 whole entry, species assumed): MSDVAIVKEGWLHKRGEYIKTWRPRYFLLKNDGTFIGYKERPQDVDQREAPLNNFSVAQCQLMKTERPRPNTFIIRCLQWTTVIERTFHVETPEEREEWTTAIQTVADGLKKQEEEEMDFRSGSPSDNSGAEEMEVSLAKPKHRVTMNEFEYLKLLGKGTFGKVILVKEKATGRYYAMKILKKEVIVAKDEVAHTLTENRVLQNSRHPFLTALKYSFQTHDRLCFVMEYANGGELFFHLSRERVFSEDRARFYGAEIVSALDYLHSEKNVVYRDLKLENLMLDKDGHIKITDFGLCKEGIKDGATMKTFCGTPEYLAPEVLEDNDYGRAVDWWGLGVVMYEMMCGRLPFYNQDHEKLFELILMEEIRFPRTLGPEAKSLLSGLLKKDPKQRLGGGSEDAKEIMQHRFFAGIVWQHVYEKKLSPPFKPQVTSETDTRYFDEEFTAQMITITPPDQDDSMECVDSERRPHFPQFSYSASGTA
T7 sequence (P45481 586-665 L599A limits assumed): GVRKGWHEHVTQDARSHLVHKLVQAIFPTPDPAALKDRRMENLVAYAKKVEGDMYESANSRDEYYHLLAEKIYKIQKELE
T13 sequence (P45481 586-665 limits assumed): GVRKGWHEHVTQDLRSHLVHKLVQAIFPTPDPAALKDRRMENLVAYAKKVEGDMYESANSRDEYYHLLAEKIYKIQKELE

ΔΔG vs wild type CBP KIX, Y658F (CBP KIX Y658F): 2.5 kcal/mol | ΔΔG vs wild type CBP KIX, Y650A (CBP KIX Y650A): 1.8 kcal/mol | ΔΔG vs wild type CBP KIX, L603A (CBP KIX L603A): 1.2 kcal/mol | ΔΔG vs wild type CBP KIX, I657A (CBP KIX I657A): 0.9 kcal/mol | ΔΔG vs wild type CBP KIX, LL652-3AA (CBP KIX LL652-3AA): 1.2 kcal/mol | ΔΔG vs wild type CBP KIX, K662A (CBP KIX K662A): 1.5 kcal/mol | ΔΔG vs wild type CBP KIX, L599A (CBP KIX L599A): 0.58 kcal/mol | ΔΔG vs wild type CBP KIX, K606A (CBP KIX K606A): 1.0 kcal/mol | ΔΔG of HisKIX binding upon phosphorylation [1]: > 3.2 kcal/mol
Compound: CC[C@H](C)[C@H](NC(=O)[C@H](CCCCN)NC(=O)[C@H](CCCNC(=N)N)NC(=O)[C@H](Cc1ccc(O)cc1)NC(=O)[C@H](COP(=O)(O)O)NC(=O)[C@@H]1CCCN1C(=O)[C@H](CCCNC(=N)N)NC(=O)[C@H](CCCNC(=N)N)NC(=O)[C@H](CO)NC(=O)[C@H](CC(C)C)NC(=O)[C@@H](NC(=O)[C@H](CCC(=O)O)NC(=O)[C@H](CCCNC(=N)N)NC(=O)[C@H](CCCNC(=N)N)NC(=O)[C@H](CCCCN)NC(=O)[C@H](CCC(N)=O)NC(=O)[C@H](CO)NC(=O)[C@H](CC(=O)O)NC(=O)[C@@H](N)[C@@H](C)O)[C@@H](C)CC)C(=O)N[C@@H](CC(C)C)C(=O)N[C@@H](CC(N)=O)C(=O)N[C@@H](CC(=O)O)C(=O)N[C@@H](CC(C)C)C(=O)N[C@@H](CO)C(=O)N[C@@H](CO)C(=O)N[C@@H](CC(=O)O)C(=O)N[C@@H](C)C(=O)N1CCC[C@H]1C(=O)NCC(=O)N[C@H](C(=O)N[C@@H](CSCC(=O)Nc1ccc2c(c1)C(=O)OC21c2ccc(O)cc2Oc2cc(O)ccc21)C(N)=O)C(C)C [KID-AB, reference compound] (H-TDSQKRREILSRRP[pS]YRKILNDLSSDAPGVC(Fluorescein(5-NHCOCH2))-NH2)

Compound: GPSQPTYPGDDAPVEDLIRFYNDLTYYLFVVSGRTGRRNC(X1)IHD-NH2 (C-terminus assumed) [1-K252a]
fold more potent than 1 alone (PKA) (PKA): 30 fold | IC50 [2]: 0.679 ± 0.202 µM | inhibition of PKB phosphotransferase activity (Akt kinase (PKB)): inhibiting no other kinase tested | inhibition of PKC-α phosphotransferase activity [3]: inhibiting no other kinase tested | inhibition of CamKII phosphotransferase activity [4]: inhibiting no other kinase tested

Kd (CBP KIX Y658F; 25° C.): 4.1 ± 0.2 µM | Kd (CBP KIX I660A): 1.1 ± 0.1 µM | Kd (CBP KIX Y658A): 4.1 µM and 3.9 µM | Kd (CBP KIX E655A): 0.54 ± 0.05 µM | Kd (CBP KIX wild type): 0.61 ± 0.04 µM | Kd (CBP KIX Q661A): 1.1 ± 0.1 µM | Kd (CBP KIX Y650A; 25° C.): 3 ± 0.3 µM | Kd (Calmodulin): 51 µM and 52 µM | Kd (CBP KIX L603A; 25° C.): 3.4 ± 0.5 µM | Kd (CBP KIX I657A; 25° C.): 2.7 ± 0.1 µM | Kd (CBP KIX LL652-3AA; 25° C.): 2.9 ± 0.2 µM | Kd (CBP KIX K662A; 25° C.): 3.9 ± 0.3 µM | Kd (CBP KIX K606A; 25° C.): 3.1 ± 0.2 µM | Kd (Carbonic anhydrase II): 106 ± 12 µM | Kd ([1]; fluorescein-labeled phosphopeptide, read-out: Kd HisKIX, phosphorylated peptide (P)): 0.515 ± 0.044 µM | Kd ([1]; fluorescein-labeled unphosphorylated peptide, read-out: Kd HisKIX, unphosphorylated peptide (U)): 12.1 ± 2.4 µM
Compound: CC[C@H](C)[C@H](NC(=O)[C@H](Cc1ccc(O)cc1)NC(=O)[C@H](Cc1ccccc1)NC(=O)[C@H](Cc1ccccc1)NC(=O)[C@H](COP(=O)(O)O)NC(=O)[C@H](CC(C)C)NC(=O)[C@H](CCCNC(=N)N)NC(=O)[C@H](CCCNC(=N)N)NC(=O)[C@@H](NC(=O)[C@@H]1CCCN1C(=O)[C@H](C)NC(=O)[C@H](CC(=O)O)NC(=O)[C@H](CC(=O)O)NC(=O)CNC(=O)[C@@H]1CCCN1C(=O)[C@H](Cc1ccc(O)cc1)NC(=O)[C@@H](NC(=O)[C@@H]1CCCN1C(=O)[C@H](CCC(N)=O)NC(=O)[C@H](CO)NC(=O)[C@@H]1CCCN1C(=O)CN)[C@@H](C)O)C(C)C)C(=O)N[C@@H](CC(C)C)C(=O)N[C@@H](CC(C)C)C(=O)N[C@@H](CC(=O)O)C(=O)N[C@@H](CC(C)C)C(=O)N[C@@H](Cc1ccc(O)cc1)C(=O)N[C@@H](CC(C)C)C(=O)N[C@@H](CC(=O)O)C(=O)N[C@@H](C)C(=O)N1CCC[C@H]1C(=O)NCC(=O)N[C@H](C(=O)N[C@@H](CSCC(=O)Nc1ccc2c(c1)C(=O)OC21c2ccc(O)cc2Oc2cc(O)ccc21)C(N)=O)C(C)C [PPKID4]
